Measured values taken from patent US8383584B2, “HCV inhibiting macrocyclic phenylcarbamates” (Medivir AB, priority 2007, dated 2013).

target: T1, HCV NS3/4A protease complexes (full-length hepatitis C NS3 protease enzyme) (Hepatitis C virus genotype 1a, UniProt P27958); assay: Inhibition assay (enzyme assay), depsipeptide substrate hydrolysis with NS4A cofactor; format: biochemical; details: 1 nM enzyme, 25 μM NS4A cofactor, 0.5 μM substrate, 30° C.
T1 construct: full-length hepatitis C NS3 protease enzyme
T1 sequence (P27958 1027-1657, one chain of several): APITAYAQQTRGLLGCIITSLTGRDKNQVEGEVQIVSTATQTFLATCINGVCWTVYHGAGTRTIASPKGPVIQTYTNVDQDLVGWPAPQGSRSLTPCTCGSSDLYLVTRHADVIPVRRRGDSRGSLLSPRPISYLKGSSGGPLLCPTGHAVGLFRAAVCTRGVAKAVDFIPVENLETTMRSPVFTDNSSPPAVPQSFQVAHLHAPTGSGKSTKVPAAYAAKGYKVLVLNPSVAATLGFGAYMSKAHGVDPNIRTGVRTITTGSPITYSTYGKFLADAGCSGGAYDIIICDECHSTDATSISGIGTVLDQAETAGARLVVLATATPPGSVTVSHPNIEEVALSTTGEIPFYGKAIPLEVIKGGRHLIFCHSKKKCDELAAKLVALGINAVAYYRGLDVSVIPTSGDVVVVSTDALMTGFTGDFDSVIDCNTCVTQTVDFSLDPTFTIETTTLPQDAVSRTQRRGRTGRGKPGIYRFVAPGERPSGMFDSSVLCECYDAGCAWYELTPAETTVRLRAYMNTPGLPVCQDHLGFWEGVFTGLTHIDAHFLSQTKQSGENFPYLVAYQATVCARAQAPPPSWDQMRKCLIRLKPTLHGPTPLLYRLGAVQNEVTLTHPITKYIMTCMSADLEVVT
Description: The aim of this in vitro assay was to measure the inhibition of HCV NS3/4A protease complexes by the compounds of the present invention. This assay provides an indication of how effective compounds of the present invention would be in inhibiting HCV NS3/4A proteolytic activity.
The inhibition of full-length hepatitis C NS3 protease enzyme was measured essentially as described in Poliakov, 2002 Prot Expression & Purification 25 363 371. Briefly, the hydrolysis of a depsipeptide substrate, Ac-DED(Edans)EEAbuψ[COO]ASK(Dabcyl)-NH2 (AnaSpec, San José, USA), was measured spectrofluorometrically in the presence of a peptide cofactor, KKGSVVIVGRIVLSGK (Åke Engström, Department of Medical Biochemistry and Microbiology, Uppsala University, Sweden). [Landro, 1997 #Biochem 36 9340-9348]. The enzyme (1 nM) was incubated in 50 mM HEPES, pH 7.5, 10 mM DTT, 40% glycerol, 0.1% n-octyl-D-glucoside, with 25 μM NS4A cofactor and inhibitor at 30° C. for 10 min, whereupon the reaction was initiated by addition of 0.5 μM substrate. Inhibitors were dissolved in DMSO, sonicated for 30 sec. and vortexed. The solutions were stored at −20° C. between measurements.
The final concentration of DMSO in the assay sample was adjusted to 3.3%. The rate of hydrolysis was corrected for inner filter effects according to published procedures [Liu, Analytical Biochemistry, 1999, vol. 267, pp. 331-335]. Ki values were estimated by non-linear regression analysis (GraFit, Erithacus Software, Staines, MX, UK), using a model for competitive inhibition and a fixed value for Km (0.15 μM). A minimum of two replicates was performed for all measurements.

Row | Structure (SMILES) | Ki [µM]
1 | CN1CCCCC=CC2CC2(C(=O)NS(=O)(=O)C2CC2)NC(=O)C2CC(OC(=O)Nc3ccccc3C#N)CC2C1=O (stereo not drawn) [Example 1, (2-Cyanophenyl)-carbamic acid 4-cyclopropanesulfonylaminocarbonyl-13-methyl-2,14-dioxo-3,13-diaza-tricyclo[13.3.0.0*4,6*]octadec-7-en-17-yl ester] | 0.03 to 0.1
2 | CN1CCCC/C=C\[C@@H]2C[C@@]2(C(=O)NS(=O)(=O)C2CC2)NC(=O)[C@@H]2C[C@@H](OC(=O)Nc3ccccc3Oc3ccccc3)C[C@H]2C1=O [Example 2, (2-Phenoxyphenyl)-carbamic acid 4-cyclopropanesulfonylaminocarbonyl-13-methyl-2,14-dioxo-3,13-diaza-tricyclo[13.3.0.0*4,6*]octadec-7-en-17-yl ester] | 0.0001 to 0.0299
3 | COc1ccccc1NC(=O)O[C@@H]1C[C@H]2C(=O)N[C@]3(C(=O)NS(=O)(=O)C4CC4)C[C@H]3/C=C\CCCCN(C)C(=O)[C@@H]2C1 [Example 3, (2-Methoxy-phenyl)-carbamic acid 4-cyclopropanesulfonylaminocarbonyl-13-methyl-2,14-dioxo-3,13-diaza-tricyclo[13.3.0.0*4,6*]octadec-7-en-17-yl ester] | 0.0001 to 0.0299

tested on: HCV replicons (Huh-7 luc/neo cells, NS3-NS5B regions of HCV type 1b); assay: Replicon assay (Huh-Luc luciferase, HCV RNA replication); format: cell-based; details: Hepatitis C virus, Huh-7, 72 h, read-out: EC50 Replicon assay
Text: The compounds of formula (I) were examined for activity in the inhibition of HCV RNA replication in a cellular assay. […] The cellular assay was based on a bicistronic expression construct, as described by Lohmann et al. (1999) Science vol. 285 pp. 110-113 with modifications described by Krieger et al. (2001) Journal of Virology 75: 4614-4624, in a multi-target screening strategy. In essence, the method was as follows.
The assay utilized the stably transfected cell line Huh-7 luc/neo (hereafter referred to as Huh-Luc). This cell line harbors an RNA encoding a bicistronic expression construct comprising the wild type NS3-NS5B regions of HCV type 1b translated from an Internal Ribosome Entry Site (IRES) from encephalomyocarditis virus (EMCV), preceded by a reporter portion (FfL-luciferase), and a selectable marker portion (neo^R, neomycine phosphotransferase). The construct is bordered by 5′ and 3′ NTRs (non-translated regions) from HCV type 1b. Continued culture of the replicon cells in the presence of G418 (neo^R) is dependent on the replication of the HCV RNA. The stably transfected replicon cells that express HCV RNA, which replicates autonomously and to high levels, encoding inter alia luciferase, are used for screening the antiviral compounds.
The replicon cells were plated in 384 well plates in the presence of the test and control compounds which were added in various concentrations. Following an incubation of three days, HCV replication was measured by assaying luciferase activity (using standard luciferase assay substrates and reagents and a Perkin Elmer ViewLux™ ultraHTS microplate imager). Replicon cells in the control cultures have high luciferase expression in the absence of any inhibitor. The inhibitory activity of the compound on luciferase activity was monitored on the Huh-Luc cells, enabling a dose-response curve for each test compound. EC50 values were then calculated, which value represents the amount of the compound required to decrease by 50% the level of detected luciferase activity, or more specifically, the ability of the genetically linked HCV replicon RNA to replicate.

Row | Structure (SMILES) | EC50 [µM]
4 | CN1CCCC/C=C\[C@@H]2C[C@@]2(C(=O)NS(=O)(=O)C2(C)CC2)NC(=O)[C@@H]2C[C@@H](OC(=O)Nc3cccc(N(C)C)c3)C[C@H]2C1=O [Example 9, (3-Dimethylaminophenyl)-carbamic acid 13-methyl-4-(1-methyl-cyclopropane-sulfonylaminocarbonyl)-2,14-dioxo-3,13-diaza-tricyclo[13.3.0.0*4,6*]octadec-7-en-17-yl ester] | 1 to 10

same assay, conditions: Hepatitis C virus, Huh-7, 72 h; Huh-Luc cells, three days incubation, luciferase activity; read-out: EC50 Replicon assay

Row | Structure (SMILES) | EC50 [µM]
5 | CN1CCCCC=CC2CC2(C(=O)NS(=O)(=O)C2CC2)NC(=O)C2CC(OC(=O)Nc3ccccc3C#N)CC2C1=O (stereo not drawn) [Example 1, (2-Cyanophenyl)-carbamic acid 4-cyclopropanesulfonylaminocarbonyl-13-methyl-2,14-dioxo-3,13-diaza-tricyclo[13.3.0.0*4,6*]octadec-7-en-17-yl ester] | > 10
6 | CN1CCCC/C=C\[C@@H]2C[C@@]2(C(=O)NS(=O)(=O)C2CC2)NC(=O)[C@@H]2C[C@@H](OC(=O)Nc3ccccc3Oc3ccccc3)C[C@H]2C1=O [Example 2, (2-Phenoxyphenyl)-carbamic acid 4-cyclopropanesulfonylaminocarbonyl-13-methyl-2,14-dioxo-3,13-diaza-tricyclo[13.3.0.0*4,6*]octadec-7-en-17-yl ester] | 1 to 10
7 | COc1ccccc1NC(=O)O[C@@H]1C[C@H]2C(=O)N[C@]3(C(=O)NS(=O)(=O)C4CC4)C[C@H]3/C=C\CCCCN(C)C(=O)[C@@H]2C1 [Example 3, (2-Methoxy-phenyl)-carbamic acid 4-cyclopropanesulfonylaminocarbonyl-13-methyl-2,14-dioxo-3,13-diaza-tricyclo[13.3.0.0*4,6*]octadec-7-en-17-yl ester] | 1 to 10
8 | COC(=O)c1cccc(NC(=O)O[C@@H]2C[C@H]3C(=O)N[C@]4(C(=O)NS(=O)(=O)C5CC5)C[C@H]4/C=C\CCCCN(C)C(=O)[C@@H]3C2)c1 [Example 5, 3-(4-Cyclopropanesulfonylaminocarbonyl-13-methyl-2,14-dioxo-3,13-diaza-tricyclo-[13.3.0.0*4,6*]octadec-7-en-17-yloxycarbonylamino)-benzoic acid methyl ester] | 1 to 10
9 | COc1ccc(C#N)cc1NC(=O)OC1CC2C(=O)NC3(C(=O)NS(=O)(=O)C4(C)CC4)CC3C=CCCCCN(C)C(=O)C2C1 (stereo not drawn) [Example 6c, (5-Cyano-2-methoxy-phenyl)-carbamic acid 13-methyl-4-(1-methyl-cyclopropanesulfonylaminocarbonyl)-2,14-dioxo-3,13-diaza-tricyclo[13.3.0.0*4,6*]-octadec-7-en-17-yl ester] | > 10
10 | COc1cccc(NC(=O)O[C@@H]2C[C@H]3C(=O)N[C@]4(C(=O)NS(=O)(=O)C5CC5)C[C@H]4/C=C\CCCCN(C)C(=O)[C@@H]3C2)c1 [Example 10, (3-Methoxyphenyl)-carbamic acid 4-cyclopropanesulfonylaminocarbonyl-13-methyl-2,14-dioxo-3,13-diaza-tricyclo[13.3.0.0*4,6*]octadec-7-en-17-yl ester] | 1 to 10
11 | CN1CCCC/C=C\[C@@H]2C[C@@]2(C(=O)NS(=O)(=O)C2CC2)NC(=O)[C@@H]2C[C@@H](OC(=O)Nc3cccc(Oc4ccccc4)c3)C[C@H]2C1=O [Example 11, (3-Phenoxy-phenyl)-carbamic acid 4-cyclopropanesulfonylaminocarbonyl-13-methyl-2,14-dioxo-3,13-diaza-tricyclo[13.3.0.0*4,6*]octadec-7-en-17-yl ester] | 1 to 10
12 | CN1CCCC/C=C\[C@@H]2C[C@@]2(C(=O)NS(=O)(=O)C2CC2)NC(=O)[C@@H]2C[C@@H](OC(=O)Nc3cccc(C#N)c3)C[C@H]2C1=O [Example 12, (3-Cyano-phenyl)-carbamic acid 4-cyclopropanesulfonylaminocarbonyl-13-methyl-2,14-dioxo-3,13-diaza-tricyclo[13.3.0.0*4,6*]octadec-7-en-17-yl ester] | 0.2 to 0.99
13 | CN1CCCC/C=C\[C@@H]2C[C@@]2(C(=O)NS(=O)(=O)C2(C)CC2)NC(=O)[C@@H]2C[C@@H](OC(=O)Nc3cccc(C#N)c3)C[C@H]2C1=O [Example 13, (3-Cyanophenyl)-carbamic acid 13-methyl-4-(1-methylcyclopropanesulfonylamino-carbonyl)-2,14-dioxo-3,13-diaza-tricyclo[13.3.0.0*4,6*]octadec-7-en-17-yl ester] | 0.0005 to 0.199
14 | COc1cccc(NC(=O)O[C@@H]2C[C@H]3C(=O)N[C@]4(C(=O)NS(=O)(=O)C5(C)CC5)C[C@H]4/C=C\CCCCN(C)C(=O)[C@@H]3C2)c1 [Example 14, (3-Methoxy-phenyl)-carbamic acid 13-methyl-4-(1-methyl-cyclopropanesulfonyl-aminocarbonyl)-2,14-dioxo-3,13-diaza-tricyclo[13.3.0.0*4,6*]octadec-7-en-17-yl ester] | 0.2 to 0.99
15 | Cc1cccc(NC(=O)O[C@@H]2C[C@H]3C(=O)N[C@]4(C(=O)NS(=O)(=O)C5CC5)C[C@H]4/C=C\CCCCN(C)C(=O)[C@@H]3C2)c1 [Example 15, m-Tolyl-carbamic acid 4-cyclopropanesulfonylaminocarbonyl-13-methyl-2,14-dioxo-3,13-diaza-tricyclo[13.3.0.0*4,6*]octadec-7-en-17-yl ester] | > 10
16 | Cc1ccc(F)c(NC(=O)O[C@@H]2C[C@H]3C(=O)N[C@]4(C(=O)NS(=O)(=O)C5CC5)C[C@H]4/C=C\CCCCN(C)C(=O)[C@@H]3C2)c1 [Example 16, (2-Fluoro-5-methyl-phenyl)-carbamic acid 4-cyclopropanesulfonylaminocarbonyl-13-methyl-2,14-dioxo-3,13-diaza-tricyclo[13.3.0.0*4,6*]octadec-7-en-17-yl ester] | 1 to 10
17 | Cc1nc(-c2cccc(NC(=O)O[C@@H]3C[C@H]4C(=O)N[C@]5(C(=O)NS(=O)(=O)C6CC6)C[C@H]5/C=C\CCCCN(C)C(=O)[C@@H]4C3)c2)cs1 [Example 17, [3-(2-Methyl-thiazol-4-yl)-phenyl]-carbamic acid 4-cyclopropanesulfonylamino-carbonyl-13-methyl-2,14-dioxo-3,13-diaza-tricyclo[13.3.0.0*4,6*]octadec-7-en-17-yl ester] | 1 to 10
18 | Cc1ccc(C#N)c(NC(=O)O[C@@H]2C[C@H]3C(=O)N[C@]4(C(=O)NS(=O)(=O)C5CC5)C[C@H]4/C=C\CCCCN(C)C(=O)[C@@H]3C2)c1 [Example 18, (2-Cyano-5-methyl-phenyl)-carbamic acid 4-cyclopropanesulfonylaminocarbonyl-13-methyl-2,14-dioxo-3,13-diaza-tricyclo[13.3.0.0*4,6*]octadec-7-en-17-yl ester] | 0.2 to 0.99
